Where “and” joins values, the source holds several entries; their conditions need not be identical. Equal entries are not always repeated. No end group written: not given here.
System: LRF (luteinizing hormone releasing factor) induced luteinizing hormone (LH) release
Experiment: LRF antagonist activity in vitro, rat anterior pituitary cell cultures (Vale et al.)
Type: cell-based
Conditions: LRF alone
From the text: Hexapeptides of this invention were screened for LRF antagonist activity in vitro using rat anterior pituitary cell cultures as described by Vale et. al. [Endocrinology, 91, 562 (1972)]. The inhibition of LRF (luteinizing hormone releasing factor) induced luteinizing hormone (LH) release into the culture medium is the endpoint in this in vitro bioassay.

LRF Control: luteinizing hormone releasing factor, also referred to as luteinizing hormone releasing hormone, LH-RH; stimulus in the bioassay (QHWSYGLRPG; ends and bridges not checked; UniProt P01148 24-33, looked up)
LH Value (Molar Conc. 2.5×10^-10): 38.98 ng/mL | LH Value (Molar Conc. 3.5×10^-10): 35.60 ng/mL and 49.99 ng/mL and 41.70 ng/mL and 64.13 ng/mL | LH Value (Molar Conc. 5×10^-10): 63.61 ng/mL
